Test results reported in patent US20260373156A1, “CANCER TREATMENTS USING MTA-COOPERATIVE PRMT5 INHIBITORS” (AMGEN INC., priority 2022, published 2026).
Values joined by “and” are separate entries in the source; they are usually repeats but may differ in a detail not shown here. Identical values can stand only once. Like-named read-outs stand apart in the source and are kept apart here.

How the values were obtained:
[1] = test system: MiaPaCa2 PDAC xenografts; design: species or system Female NOD/SCID mice; details: mouse, in vivo
Protocol: FIG. 6A: Mice were implanted with LU99 (NSCLC CDX) tumors, FIG. 6B: LU5268 (NSCLC PDX) tumors. FIG. 6C: MiaPaCa2 (PDAC CDX) tumors. Vehicle, Compound G, and sotorasib were dosed as indicated. Data represent mean±SD, n=10 for each group.
10 Female NOD/SCID mice were implanted with LU99 NSCLC, LU5268 NSCLC or MisPaCa2 PDAC tumor xenografts. Mean tumor volumes for each grouping were between 100-200 mm^3. Mice were allocated to the four different study groups by tumor volume and dosing was initiated with Vehicle, Compound G (100 mg/kg), sotorasib (100 mg/kg) orally once daily or a combination of Compound G (100 mg/kg) with sotorasib (100 mg/kg). Plotted data represents the TGI (tumor growth inhibition), n=10 for each group.

[2] = test system: H1650 cells; assay type: cell-based; details: 8640 min, 0.44 µM
Protocol: (§1) A MTAP-null NSCLC cancer cell line (H1650) was treated with the combination of Compound G and osimertinib for 6 days. Compound G was performed at a 1.9-fold dilution series and the combination partner was performed at 1.2 to 1.7 fold dilution series to create an 8×10 dose matrix including DMSO-only controls. Cell viability was measured by the CellTiter-Glo Luminescence assay. Raw luminescent values were converted to fraction affected (Fa) with the following equation: […]
(§2) Synergy analysis was performed using the CalcuSyn software to determine CI scores based on the drug concentrations used and corresponding Fa values.

[3] = test system: H1650 cells; assay type: cell-based
Protocol: as §1, with “erlotinib” for “osimertinib”
as §2

[4] = test system: LU99 NSCLC xenografts; details: mouse, in vivo
[5] = test system: LU99 NSCLC xenografts; details: mouse, in vivo; remark: listed apart in the source
[6] = test system: LU5268 NSCLC xenografts; details: mouse, in vivo
[7] = test system: PSN1 cells; assay: CellTiter-Glo viability and CalcuSyn synergy, PRMT5 inhibitor + KIF18A, 6 days; details: psn1 cells, 8640 min, 0.0767 µM
[8] = test system: MIAPACA2T2 cells; assay: as above
[9] = test system: HCC1395 cells; assay: CellTiter-Glo viability and CalcuSyn synergy, PRMT5 inhibitor + olaparib, 6 days; details: hcc1395 cells, 8640 min, 0.7673 µM
[10] = test system: MIAPACA2T2 cells; assay: CellTiter-Glo viability and CalcuSyn synergy, PRMT5 inhibitor + sotorasib, 6 days; details: miapaca2t2 cells, 8640 min, 0.4374 µM
[11] = test system: LU99 cells; assay: as above
[12] = test system: A549 cells; assay: CellTiter-Glo viability and CalcuSyn synergy, PRMT5 inhibitor + trametinib, 6 days
[13] = test system: MIAPACA2T2 cells; assay: as above
[14] = test system: H292 cells; assay: CellTiter-Glo viability and CalcuSyn synergy, PRMT5 inhibitor + palbociclib, 6 days; details: h292 cells, 8640 min, 0.1212 µM
[15] = test system: A549 cells; assay: as above; details: a549 cells, 8640 min, 0.437382 µM
[16] = test system: A549 cells; assay: CellTiter-Glo viability and CalcuSyn synergy, PRMT5 inhibitor + KRAS G12X inhibitor, 6 days; details: a549 cells, 8640 min, 0.4374 µM

For Nc1nc2cnc(C(=O)N3CCOC[C@@H]3c3ccc(C(F)(F)F)cc3)cc2c2c1COC2 [Compound G], the tumor growth inhibition [1] was “significantly inhibits tumor growth”, the “Combination Fa” value [2] was 0.74 and 0.73 and 0.69 and 0.67 and 0.66 and 0.88 and 0.76 and the “Computed CI value” [3] was 0.40 and 0.29 and 0.34 and 0.35 and 0.52 and 0.48. The “Combination Fa” value ([3]; h1650 cells, 8640 min, 0.23 µM) was 0.73 and 0.67 and 0.64 and 0.59 and 0.79 and 0.75, the anti-tumor activity [4] was “significant anti-tumor activity versus either single agent alone” and the tumor growth inhibition [5] was “significantly inhibits tumor growth”. The tumor growth inhibition [6] was “significantly inhibits tumor growth”, the “Combination Fa” value [7] was 0.858 and 0.868 and 0.837 and 0.811 and 0.781 and 0.923 and 0.86 and the “Computed CI value” [8] was 0.561 and 0.6 and 0.594 and 0.774 and 0.68 and 1.044 and 0.802. The “Combination Fa” value ([8]; miapaca2t2 cells, 8640 min, 0.437381 µM) was 0.7856 and 0.6938 and 0.6123 and 0.4815 and 0.4538 and 0.85 and 0.8122, the “Combination Fa” value [9] was 0.6464 and 0.5971 and 0.5852 and 0.5488 and 0.55 and 0.7334 and 0.6661 and the “Combination Fa” value [10] was 0.818 and 0.785 and 0.712 and 0.633 and 0.519 and 0.829 and 0.84. For the same compound, the “Computed CI value” [11] was 0.276 and 0.234 and 0.289 and 0.249 and 0.281 and 0.424 and 0.294, the “Combination Fa” value ([11]; lu99 cells, 8640 min, 0.1458 µM) was 0.817 and 0.821 and 0.794 and 0.804 and 0.787 and 0.825 and the “Computed CI value” [12] was 0.276 and 0.365 and 0.349 and 0.48 and 0.512 and 0.43 and 0.384. For the same compound, the “Combination Fa” value ([12]; a549 cells, 8640 min, 0.4374 µM) was 0.8494 and 0.7817 and 0.7499 and 0.6788 and 0.6495 and 0.894 and 0.8631, the “Computed CI value” [13] was 0.579 and 0.774 and 0.806 and 0.84 and 0.868 and 0.784 and 0.557 and the “Combination Fa” value ([13]; miapaca2t2 cells, 8640 min, 0.83102 µM) was 0.792 and 0.69 and 0.63 and 0.583 and 0.551 and 0.868 and 0.85. For the same compound, the “Combination Fa” value [14] was 0.8154 and 0.7885 and 0.7925 and 0.7748 and 0.7116 and 0.8564 and 0.824, the “Combination Fa” value [15] was 0.717 and 0.713 and 0.732 and 0.683 and 0.682 and 0.86 and 0.735 and the “Combination Fa” value [16] was 0.8549 and 0.7807 and 0.755 and 0.7181 and 0.6897 and 0.833 and 0.8551.
